From BindingDB's records for patent US20250221987 (Acerand Therapeutics (Hong Kong), 2025)
pIC50: −log10 of the molar value.

Assays:
[1] = target: Poly [ADP-ribose] polymerase 1 (Homo sapiens, UniProt P09874); assay: PARP1 Enzymatic Activity Assay
Procedure: 2) After the coating was completed, the coating buffer was discarded. […] After washing, the blocking buffer was discarded. […] 4) 1000× compound was prepared. 1 μL of compound was transferred to a 96-well plate containing 199 μL of reaction buffer (50 mM Tris-HCl (pH 7.5), 0.005% Tween-20, 0.01% BSA) and mixed well. […] 5) 25/10×PARP1-DNA solution was prepared with reaction buffer. […] 6) 25/10×NAD+ solution was prepared with reaction buffer. […] 8) Primary antibody was 2000-fold diluted with the blocking buffer. 20 μL of primary antibody was added to the reaction plate, which was incubated at room temperature for 1.5 hours. 9) The primary antibody was discarded. […] 10) Secondary antibody was 2000-fold diluted with the blocking buffer. […] 11) The secondary antibody was discarded. […] The chemiluminescence value RLU was read with Envision.

[2] = target: Poly [ADP-ribose] polymerase 2 (Homo sapiens, UniProt Q9UGN5); assay: PARP2 Enzymatic Activity Assay
Procedure: 2) After the coating was completed, the coating buffer was discarded. […] 6) 2000× compound was prepared. […] 10) The Stre-HRP solution was discarded.

Poly [ADP-ribose] polymerase 1, sequence (P09874 whole entry): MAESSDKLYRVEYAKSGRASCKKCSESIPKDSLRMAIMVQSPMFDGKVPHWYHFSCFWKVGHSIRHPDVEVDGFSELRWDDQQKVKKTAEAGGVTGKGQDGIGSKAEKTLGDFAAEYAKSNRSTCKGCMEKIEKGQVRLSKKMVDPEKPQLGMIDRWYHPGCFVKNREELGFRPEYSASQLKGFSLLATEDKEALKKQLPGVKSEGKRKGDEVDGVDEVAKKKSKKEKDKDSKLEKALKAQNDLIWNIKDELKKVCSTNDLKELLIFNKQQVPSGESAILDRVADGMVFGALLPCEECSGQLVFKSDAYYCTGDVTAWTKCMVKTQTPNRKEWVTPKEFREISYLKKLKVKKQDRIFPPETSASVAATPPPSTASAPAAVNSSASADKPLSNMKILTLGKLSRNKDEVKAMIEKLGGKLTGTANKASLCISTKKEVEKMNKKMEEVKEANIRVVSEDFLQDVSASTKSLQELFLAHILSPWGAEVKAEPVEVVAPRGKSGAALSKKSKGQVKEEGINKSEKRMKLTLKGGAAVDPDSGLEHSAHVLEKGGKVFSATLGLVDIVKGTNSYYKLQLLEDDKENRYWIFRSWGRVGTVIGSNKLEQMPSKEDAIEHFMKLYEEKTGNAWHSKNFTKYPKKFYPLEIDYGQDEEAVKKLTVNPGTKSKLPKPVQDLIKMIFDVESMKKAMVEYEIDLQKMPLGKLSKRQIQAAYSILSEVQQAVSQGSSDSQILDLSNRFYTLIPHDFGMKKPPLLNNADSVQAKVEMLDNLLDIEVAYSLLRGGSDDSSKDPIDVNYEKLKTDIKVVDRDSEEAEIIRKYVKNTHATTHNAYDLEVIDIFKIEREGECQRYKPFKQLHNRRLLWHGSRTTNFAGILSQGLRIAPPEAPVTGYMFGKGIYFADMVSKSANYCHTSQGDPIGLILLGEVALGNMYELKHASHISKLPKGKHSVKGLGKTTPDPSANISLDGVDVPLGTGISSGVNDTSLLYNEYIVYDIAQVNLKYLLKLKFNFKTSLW
Poly [ADP-ribose] polymerase 2, sequence (Q9UGN5 whole entry): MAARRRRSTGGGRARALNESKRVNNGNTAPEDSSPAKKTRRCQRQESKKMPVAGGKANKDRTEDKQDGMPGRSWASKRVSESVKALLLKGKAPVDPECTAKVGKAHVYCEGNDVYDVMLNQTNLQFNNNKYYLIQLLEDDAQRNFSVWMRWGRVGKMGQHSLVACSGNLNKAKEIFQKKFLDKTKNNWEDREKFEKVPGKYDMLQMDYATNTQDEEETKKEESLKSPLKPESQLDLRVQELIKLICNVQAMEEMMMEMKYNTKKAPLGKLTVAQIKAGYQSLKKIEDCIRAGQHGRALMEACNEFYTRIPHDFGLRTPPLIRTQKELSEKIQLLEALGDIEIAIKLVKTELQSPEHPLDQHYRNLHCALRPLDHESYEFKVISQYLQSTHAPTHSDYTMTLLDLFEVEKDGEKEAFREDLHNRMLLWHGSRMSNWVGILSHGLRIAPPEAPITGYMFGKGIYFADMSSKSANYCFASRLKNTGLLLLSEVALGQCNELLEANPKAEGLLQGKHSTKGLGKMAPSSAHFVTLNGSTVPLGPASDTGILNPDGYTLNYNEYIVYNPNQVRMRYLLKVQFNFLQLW

pIC50 [1] | pIC50 [2] | Structure (SMILES)
9.05 | – | CCc1cc2ncc(CN3CCN(c4ccc(C(=O)NC)nc4)[C@H]4C[C@H]43)cc2[nH]c1=O [US20250221987, Example 1-1]
8.96 | – | CCc1cc2ncc(CN3CCN(c4ccc(C(=O)NC)nc4)C4CC43)cc2[nH]c1=O (stereo unspecified) [US20250221987, Example 1]
9.05 | 7.85 | CCc1cc2ncc(CN3CCN(c4ccc(C(=O)NC)nc4)C4CCC43)cc2[nH]c1=O (stereo unspecified) [US20250221987, Example 2]
9.15 | – | CCc1cc2ncc(CN3CCN(c4ccc(C(=O)NC)nc4)[C@@H]4C[C@@H]43)cc2[nH]c1=O [US20250221987, Example 1-2]
8.82 | 7.14 | CCc1cc2ncc(CN3CCN(c4ccc(C(=O)NC)nc4)[C@@H]4CC[C@H]43)cc2[nH]c1=O [US20250221987, Example 2-3]
8.18 | < 6.52 | CNC(=O)c1ccc(N2CCN(Cc3cnc4cc(OC)c(=O)[nH]c4c3)[C@H]3CC[C@H]32)cn1 [US20250221987, Example 33-1]
9.00 | 7.40 | CCc1cc2ncc(CN3CCN(c4ccc(C(=O)NC)nc4)[C@H]4CC[C@@H]43)cc2[nH]c1=O [US20250221987, Example 2-4]
